Data: US7479489B2, “Heterocyclic antiviral compounds” (Roche Palo Alto LLC, priority 2004, dated 2009)

## CC[C@H](C)[C@H]1C(O)=C(C2=CS(=O)(=O)c3ccccc3N2)C(=O)N1Cc1ccccc1
  melting point: 88 to 95 °C

## CCCS(=O)(=O)Nc1ccc2c(c1)S(=O)(=O)C=C(c1c(O)c3cc(F)ccc3n(CCC3CC3)c1=O)N2.[Na]
  melting point: > 250 °C

## O=c1c(C2=CS(=O)(=O)c3ccccc3N2)c(O)c2cc(Cl)ccc2n1CCC1CC1
  melting point: 227 to 229 °C

## CC(C)(C)[C@H]1C(O)=C(C2=CS(=O)(=O)c3cc(N)ccc3N2)C(=O)N1CCC1CC1
  melting point: 105 to 110 °C

## CC(C)(C)[C@H]1C(O)=C(C2=CS(=O)(=O)c3cc(NS(C)(=O)=O)ccc3N2)C(=O)N1CCC1CC1
  melting point: 140 to 145 °C

## CNC(=O)COc1ccc2c(c1)S(=O)(=O)C=C(c1c(O)c3cc(F)ccc3n(Cc3ccc(F)cc3)c1=O)N2
  melting point: > 240 °C

## O=c1c(C2=CS(=O)(=O)c3cc(NS(=O)(=O)c4ccccc4)ccc3N2)c(O)c2cc(F)ccc2n1CCC1CC1
  melting point: > 200 °C

## Nc1ccc2c(c1)S(=O)(=O)C=C(c1c(O)c3ccccc3n(CCC3CC3)c1=O)N2
  melting point: > 250 °C

## N#Cc1cccc(Cn2c(=O)c(C3=CS(=O)(=O)c4ccccc4N3)c(O)c3cc(F)ccc32)c1.[Na]
  melting point: > 250 °C

## CS(=O)(=O)Nc1ccc2c(c1)S(=O)(=O)C=C(c1c(O)c3cc(F)ccc3n(Cc3ccc(F)c(F)c3)c1=O)N2
  melting point: 148.2 to 149.4 °C

## CCCS(=O)(=O)Nc1ccc2c(c1)S(=O)(=O)C=C(c1c(O)c3cc(F)ccc3n(CCC3CC3)c1=O)N2
  melting point: 145 to 150 °C

## Nc1ccc2c(c1)S(=O)(=O)C=C(c1c(O)c3cc(F)ccc3n(Cc3ccc(F)cc3)c1=O)N2
  melting point: > 250 °C

## CC(C)CCn1c(=O)c(C2=CS(=O)(=O)c3ccccc3N2)c(O)c2cc(Cl)ccc21
  melting point: 194 to 197 °C

## CC(C)CCN1C(=O)C(C2=CS(=O)(=O)c3ccccc3N2)=C(O)[C@@H]1C1CCCCC1
  melting point: 98 to 100 °C

## CS(=O)(=O)Nc1ccc2c(c1)S(=O)(=O)C=C(c1c(O)c3cc(F)ccc3n(Cc3ccncc3)c1=O)N2.O=C(O)C(F)(F)F
  melting point: 167 to 169 °C

## CS(=O)(=O)Nc1ccc2c(c1)S(=O)(=O)C=C(c1c(O)c3cc(F)ccc3n(Cc3cccnc3)c1=O)N2
  melting point: 174 to 186 °C

## CN1C(c2nc(Cc3ccc(F)cc3)c3ccc(F)cc3c2O)=CS(=O)(=O)c2cc(Cl)ccc21
  melting point: 254 to 256 °C

## CN(c1ccc2c(c1)S(=O)(=O)C=C(c1c(O)c3cc(F)ccc3n(Cc3ccc(F)cc3)c1=O)N2)S(C)(=O)=O
  melting point: 214 to 218 °C

## Cc1ccc2c(c1)c(O)c(C1=CS(=O)(=O)c3ccccc3N1)c(=O)n2Cc1ccc(F)cc1.[Na]
  melting point: > 250 °C

## CC[C@H](C)[C@H]1C(O)=C(C2=CS(=O)(=O)c3ccccc3N2)C(=O)N1CCC(C)C
  melting point: 72 to 80 °C

## Cc1noc(C)c1S(=O)(=O)Nc1ccc2c(c1)S(=O)(=O)C=C(c1c(O)c3cc(F)ccc3n(CCC3CC3)c1=O)N2
  melting point: 150 to 157 °C

## CC(C)(C)[C@H]1C(O)=C(C2=CS(=O)(=O)c3cc(N)ccc3N2)C(=O)N1Cc1ccc(F)cc1
  melting point: 146 to 155 °C

## CS(=O)(=O)Nc1ccc2c(c1)S(=O)(=O)C=C(c1c(O)c3cc(F)ccc3n(Cc3ccc(F)c(Cl)c3)c1=O)N2
  melting point: 166 to 174 °C

## CC(C)CCn1c(=O)c(C2=CS(=O)(=O)c3ccc(Cl)cc3N2)c(O)c2ccccc21
  melting point: 90 to 110 °C

## O=C1C(C2=CS(=O)(=O)c3ccccc3N2)=C(O)[C@H](C2CCCCC2)N1Cc1ccc(F)cc1.[Na]
  melting point: > 250 °C

## CC(C)CCn1c(=O)c(C2=CS(=O)(=O)c3ccccc3N2)c(O)c2cc(F)cnc21
  melting point: 90 to 112 °C

## CC(C)C[C@H]1C(O)=C(C2=CS(=O)(=O)c3ccccc3N2)C(=O)N1Cc1ccc(F)cc1
  melting point: 160 °C (dec.)

## CN1C(c2nc(Cc3ccc(F)cc3)c3ccccc3c2O)=CS(=O)(=O)c2cc(Cl)ccc21
  melting point: > 275 °C

## O=c1c(C2=CS(=O)(=O)c3ccccc3N2)c(O)c2cc(F)ccc2n1Cc1ccc(F)c(F)c1.[Na]
  melting point: 230 to 235 °C

## Cc1ccc2c(c1)c(O)c(C1=CS(=O)(=O)c3ccccc3N1)c(=O)n2Cc1ccc(F)cc1
  melting point: 247 to 249 °C

## CC(C)(C)[C@H]1C(O)=C(C2=CS(=O)(=O)c3cc([N+](=O)[O-])ccc3N2)C(=O)N1Cc1ccc(F)cc1
  melting point: 138 to 147 °C

## CC(C)CCn1c(=O)c(C2=CS(=O)(=O)c3cc(NS(C)(=O)=O)ccc3N2)c(O)c2cc(F)ccc21
  melting point: 205 to 219 °C

## O=c1c(C2=CS(=O)(=O)c3cc(NS(=O)(=O)C4CC4)ccc3N2)c(O)c2cc(F)ccc2n1CCC1CC1
  melting point: 145 to 155 °C

## CS(=O)(=O)Nc1ccc2c(c1)S(=O)(=O)C=C(c1c(O)c3cc(F)ccc3n(CCC3CC3)c1=O)N2.[Na]
  melting point: > 250 °C

## CC(=O)Nc1ccc2c(c1)S(=O)(=O)C=C(c1c(O)c3cc(F)ccc3n(Cc3ccc(F)cc3)c1=O)N2
  melting point: > 250 °C

## CC(C)CCN1C(=O)C(C2=CS(=O)(=O)c3ccccc3N2)=C(O)[C@@H]1C(C)(C)C
  melting point: 85 to 87 °C

## CS(=O)(=O)Nc1ccc2c(c1)S(=O)(=O)C=C(c1c(O)c3cc(F)ccc3n(Cc3ccc(F)c(C(F)(F)F)c3)c1=O)N2
  melting point: 185.8 to 187 °C

## O=c1c(C2=CS(=O)(=O)c3ccccc3N2)c(O)c2ccccc2n1Cc1ccccc1F
  melting point: > 200 °C

## CN(c1ccc2c(c1)S(=O)(=O)C=C(c1c(O)c3cc(F)ccc3n(CCC3CC3)c1=O)N2)S(C)(=O)=O
  melting point: 208 to 212 °C

## COC(=O)COc1ccc2c(c1)S(=O)(=O)C=C(c1c(O)c3cc(F)ccc3n(Cc3ccc(F)cc3)c1=O)N2
  melting point: 200 to 207 °C

## O=c1c(C2=CS(=O)(=O)c3ccccc3N2)c(O)c2cc(F)ccc2n1Cc1ccc(F)c(F)c1
  melting point: 230 to 235 °C

## CN(C)C(=O)COc1ccc2c(c1)S(=O)(=O)C=C(c1c(O)c3cc(F)ccc3n(Cc3ccc(F)cc3)c1=O)N2
  melting point: > 250 °C

## N#Cc1cccc(Cn2c(=O)c(C3=CS(=O)(=O)c4ccccc4N3)c(O)c3cc(F)ccc32)c1
  melting point: > 250 °C

## O=c1c(C2=CS(=O)(=O)c3cc(OCc4ccccc4)ccc3N2)c(O)c2cc(F)ccc2n1Cc1ccc(F)cc1
  melting point: 242 to 244 °C

## CS(=O)(=O)Nc1ccc2c(c1)S(=O)(=O)C=C(c1c(O)c3cc(F)ccc3n(CC3CCCCC3)c1=O)N2
  melting point: 184 to 203 °C

## O=C1C(C2=CS(=O)(=O)c3ccccc3N2)=C(O)[C@H](C2CCCCC2)N1Cc1ccc(F)cc1
  melting point: 180 °C (dec.)

## CC(C)CCn1c(=O)c(C2=CS(=O)(=O)c3ccc(C#N)cc3N2)c(O)c2ccccc21
  melting point: > 250 °C

## NC(=O)CCOc1ccc2c(c1)S(=O)(=O)C=C(c1c(O)c3cc(F)ccc3n(CCC3CC3)c1=O)N2
  melting point: > 250 °C

## CNC(=O)Nc1ccc2c(c1)S(=O)(=O)C=C(c1c(O)c3cc(F)ccc3n(CCC3CC3)c1=O)N2
  melting point: > 220 °C

## COc1ccc2c(c1)S(=O)(=O)C=C(c1c(O)c3cc(F)ccc3n(Cc3ccc(F)cc3)c1=O)N2
  melting point: > 250 °C

## COc1cc(CN2C(=O)C(C3=CS(=O)(=O)c4cc(NS(C)(=O)=O)ccc4N3)=C(O)[C@@H]2C(C)(C)C)ccc1F
  melting point: 175 to 180 °C

## CC(C)(C)[C@H]1C(O)=C(C2=CS(=O)(=O)c3cc(NS(N)(=O)=O)ccc3N2)C(=O)N1Cc1ccc(F)cc1
  melting point: 150 to 156 °C

## COc1ccc2c(c1)c(O)c(C1=CS(=O)(=O)c3ccccc3N1)c(=O)n2CCC1CC1
  melting point: 220 to 221 °C
